Source: paper PMC5872703, “The Postprandial Anti-Hyperglycemic Effect of Pyridoxine and Its Derivatives Using In Vitro and In Vivo Animal Models” (Nutrients, 2018)
“And” between values parts separate entries of the source, which are not always exact repeats. Equal entries are not always repeated. Marks after values point to notes of the source that are not given here.

Legend:
Sprague-Dawley (SD) rats [1] = assay: Sucrose loading test, postprandial blood glucose; format: in vivo, rat; details: for BGL AUCt / blood glucose level / change (increase) of blood glucose level: SD rats; for BGL AUCt: sucrose 2.0 g/kg; for blood glucose level / change (increase) of blood glucose level: sucrose 2.0 g/kg oral, 30 min after administration
Protocol: (§1) All animal procedures were approved by Institutional Animal Care and Use Committee (IACUC) of the Hannam University (Approval number: HNU2017-003). Four-week-old male SD rats were purchased from Raon Bio Co. (Gyeonggi-do, Korea) and fed a solid diet (Raon Bio Co., Gyeonggi-do, Korea) for one week. The rats were housed in a ventilated room at 23 ± 2 °C with 50 ± 5% relative humidity, and under an alternating 12 h light/dark cycle. […] The blood samples were then taken from the tail after administration and blood glucose levels were measured at 0, 0.5, 1, 2, and 3 h.

Sprague-Dawley (SD) rats [2] = assay: Starch loading test, postprandial blood glucose; format: in vivo, rat; details: for BGL AUCt / blood glucose level / increase in blood glucose level: SD rats; for BGL AUCt: starch 2.0 g/kg; for blood glucose level / increase in blood glucose level: starch 2.0 g/kg oral, 30 min after administration
Protocol: as §1

Rat Intestinal Maltase = assay: Maltase inhibition assay (rat intestinal acetone powder); format: biochemical; details: for IC50 Rat Intestinal Maltase: mean ± S.D.
Protocol: (§2) The crude enzyme solution prepared from rat intestinal acetone powder Sigma-Aldrich Co. (St. Louise, MO, USA) was used as the small intestinal maltase, sucrose, and glucoamylase, showing specific activities of 0.70, 0.34, and 0.45 units/mL, respectively. Rat intestinal acetone powder (1.0 g) was suspended in 3 mL of 0.1 M sodium phosphate buffer, and the suspension was sonicated 12 times for 30 s at 4 °C. After centrifugation (10,000 × g, 30 min, 4 °C), the resulting supernatant was used for the assay. Maltase, sucrose, and glucoamylase inhibitory activity were assay by modifying a method developed by Dahlqvist. The inhibitory activity was determined by incubating a solution of an enzyme (50 μL), 0.1 M phosphate buffer (pH 7.0, 100 μL) containing 0.4 mg/mL sucrose or maltose or 1% soluble starch, and a solution (50 μL) with various concentrations of sample solution (between 0.05 and 1.0 mM) at 37 °C for 30 min. The reaction mixture was heated in a boiling water bath to stop the reaction for 10 min, and the amount of liberated glucose was then measured by the glucose oxidase. The inhibitory activity was calculated from the formula as follows. Inhibition (%) = (C − T)/C × 100, where C is the enzyme activity without inhibitor, and T is the enzyme activity with inhibitor.

[3] = biological target: Rat Intestinal Glucoamylase (Rattus norvegicus, UniProt D3ZTX4); assay: Glucoamylase inhibition assay (rat intestinal acetone powder); format: biochemical; details: read-out: glucoamylase inhibition
Sequence of Rat Intestinal Glucoamylase (D3ZTX4 1-4511): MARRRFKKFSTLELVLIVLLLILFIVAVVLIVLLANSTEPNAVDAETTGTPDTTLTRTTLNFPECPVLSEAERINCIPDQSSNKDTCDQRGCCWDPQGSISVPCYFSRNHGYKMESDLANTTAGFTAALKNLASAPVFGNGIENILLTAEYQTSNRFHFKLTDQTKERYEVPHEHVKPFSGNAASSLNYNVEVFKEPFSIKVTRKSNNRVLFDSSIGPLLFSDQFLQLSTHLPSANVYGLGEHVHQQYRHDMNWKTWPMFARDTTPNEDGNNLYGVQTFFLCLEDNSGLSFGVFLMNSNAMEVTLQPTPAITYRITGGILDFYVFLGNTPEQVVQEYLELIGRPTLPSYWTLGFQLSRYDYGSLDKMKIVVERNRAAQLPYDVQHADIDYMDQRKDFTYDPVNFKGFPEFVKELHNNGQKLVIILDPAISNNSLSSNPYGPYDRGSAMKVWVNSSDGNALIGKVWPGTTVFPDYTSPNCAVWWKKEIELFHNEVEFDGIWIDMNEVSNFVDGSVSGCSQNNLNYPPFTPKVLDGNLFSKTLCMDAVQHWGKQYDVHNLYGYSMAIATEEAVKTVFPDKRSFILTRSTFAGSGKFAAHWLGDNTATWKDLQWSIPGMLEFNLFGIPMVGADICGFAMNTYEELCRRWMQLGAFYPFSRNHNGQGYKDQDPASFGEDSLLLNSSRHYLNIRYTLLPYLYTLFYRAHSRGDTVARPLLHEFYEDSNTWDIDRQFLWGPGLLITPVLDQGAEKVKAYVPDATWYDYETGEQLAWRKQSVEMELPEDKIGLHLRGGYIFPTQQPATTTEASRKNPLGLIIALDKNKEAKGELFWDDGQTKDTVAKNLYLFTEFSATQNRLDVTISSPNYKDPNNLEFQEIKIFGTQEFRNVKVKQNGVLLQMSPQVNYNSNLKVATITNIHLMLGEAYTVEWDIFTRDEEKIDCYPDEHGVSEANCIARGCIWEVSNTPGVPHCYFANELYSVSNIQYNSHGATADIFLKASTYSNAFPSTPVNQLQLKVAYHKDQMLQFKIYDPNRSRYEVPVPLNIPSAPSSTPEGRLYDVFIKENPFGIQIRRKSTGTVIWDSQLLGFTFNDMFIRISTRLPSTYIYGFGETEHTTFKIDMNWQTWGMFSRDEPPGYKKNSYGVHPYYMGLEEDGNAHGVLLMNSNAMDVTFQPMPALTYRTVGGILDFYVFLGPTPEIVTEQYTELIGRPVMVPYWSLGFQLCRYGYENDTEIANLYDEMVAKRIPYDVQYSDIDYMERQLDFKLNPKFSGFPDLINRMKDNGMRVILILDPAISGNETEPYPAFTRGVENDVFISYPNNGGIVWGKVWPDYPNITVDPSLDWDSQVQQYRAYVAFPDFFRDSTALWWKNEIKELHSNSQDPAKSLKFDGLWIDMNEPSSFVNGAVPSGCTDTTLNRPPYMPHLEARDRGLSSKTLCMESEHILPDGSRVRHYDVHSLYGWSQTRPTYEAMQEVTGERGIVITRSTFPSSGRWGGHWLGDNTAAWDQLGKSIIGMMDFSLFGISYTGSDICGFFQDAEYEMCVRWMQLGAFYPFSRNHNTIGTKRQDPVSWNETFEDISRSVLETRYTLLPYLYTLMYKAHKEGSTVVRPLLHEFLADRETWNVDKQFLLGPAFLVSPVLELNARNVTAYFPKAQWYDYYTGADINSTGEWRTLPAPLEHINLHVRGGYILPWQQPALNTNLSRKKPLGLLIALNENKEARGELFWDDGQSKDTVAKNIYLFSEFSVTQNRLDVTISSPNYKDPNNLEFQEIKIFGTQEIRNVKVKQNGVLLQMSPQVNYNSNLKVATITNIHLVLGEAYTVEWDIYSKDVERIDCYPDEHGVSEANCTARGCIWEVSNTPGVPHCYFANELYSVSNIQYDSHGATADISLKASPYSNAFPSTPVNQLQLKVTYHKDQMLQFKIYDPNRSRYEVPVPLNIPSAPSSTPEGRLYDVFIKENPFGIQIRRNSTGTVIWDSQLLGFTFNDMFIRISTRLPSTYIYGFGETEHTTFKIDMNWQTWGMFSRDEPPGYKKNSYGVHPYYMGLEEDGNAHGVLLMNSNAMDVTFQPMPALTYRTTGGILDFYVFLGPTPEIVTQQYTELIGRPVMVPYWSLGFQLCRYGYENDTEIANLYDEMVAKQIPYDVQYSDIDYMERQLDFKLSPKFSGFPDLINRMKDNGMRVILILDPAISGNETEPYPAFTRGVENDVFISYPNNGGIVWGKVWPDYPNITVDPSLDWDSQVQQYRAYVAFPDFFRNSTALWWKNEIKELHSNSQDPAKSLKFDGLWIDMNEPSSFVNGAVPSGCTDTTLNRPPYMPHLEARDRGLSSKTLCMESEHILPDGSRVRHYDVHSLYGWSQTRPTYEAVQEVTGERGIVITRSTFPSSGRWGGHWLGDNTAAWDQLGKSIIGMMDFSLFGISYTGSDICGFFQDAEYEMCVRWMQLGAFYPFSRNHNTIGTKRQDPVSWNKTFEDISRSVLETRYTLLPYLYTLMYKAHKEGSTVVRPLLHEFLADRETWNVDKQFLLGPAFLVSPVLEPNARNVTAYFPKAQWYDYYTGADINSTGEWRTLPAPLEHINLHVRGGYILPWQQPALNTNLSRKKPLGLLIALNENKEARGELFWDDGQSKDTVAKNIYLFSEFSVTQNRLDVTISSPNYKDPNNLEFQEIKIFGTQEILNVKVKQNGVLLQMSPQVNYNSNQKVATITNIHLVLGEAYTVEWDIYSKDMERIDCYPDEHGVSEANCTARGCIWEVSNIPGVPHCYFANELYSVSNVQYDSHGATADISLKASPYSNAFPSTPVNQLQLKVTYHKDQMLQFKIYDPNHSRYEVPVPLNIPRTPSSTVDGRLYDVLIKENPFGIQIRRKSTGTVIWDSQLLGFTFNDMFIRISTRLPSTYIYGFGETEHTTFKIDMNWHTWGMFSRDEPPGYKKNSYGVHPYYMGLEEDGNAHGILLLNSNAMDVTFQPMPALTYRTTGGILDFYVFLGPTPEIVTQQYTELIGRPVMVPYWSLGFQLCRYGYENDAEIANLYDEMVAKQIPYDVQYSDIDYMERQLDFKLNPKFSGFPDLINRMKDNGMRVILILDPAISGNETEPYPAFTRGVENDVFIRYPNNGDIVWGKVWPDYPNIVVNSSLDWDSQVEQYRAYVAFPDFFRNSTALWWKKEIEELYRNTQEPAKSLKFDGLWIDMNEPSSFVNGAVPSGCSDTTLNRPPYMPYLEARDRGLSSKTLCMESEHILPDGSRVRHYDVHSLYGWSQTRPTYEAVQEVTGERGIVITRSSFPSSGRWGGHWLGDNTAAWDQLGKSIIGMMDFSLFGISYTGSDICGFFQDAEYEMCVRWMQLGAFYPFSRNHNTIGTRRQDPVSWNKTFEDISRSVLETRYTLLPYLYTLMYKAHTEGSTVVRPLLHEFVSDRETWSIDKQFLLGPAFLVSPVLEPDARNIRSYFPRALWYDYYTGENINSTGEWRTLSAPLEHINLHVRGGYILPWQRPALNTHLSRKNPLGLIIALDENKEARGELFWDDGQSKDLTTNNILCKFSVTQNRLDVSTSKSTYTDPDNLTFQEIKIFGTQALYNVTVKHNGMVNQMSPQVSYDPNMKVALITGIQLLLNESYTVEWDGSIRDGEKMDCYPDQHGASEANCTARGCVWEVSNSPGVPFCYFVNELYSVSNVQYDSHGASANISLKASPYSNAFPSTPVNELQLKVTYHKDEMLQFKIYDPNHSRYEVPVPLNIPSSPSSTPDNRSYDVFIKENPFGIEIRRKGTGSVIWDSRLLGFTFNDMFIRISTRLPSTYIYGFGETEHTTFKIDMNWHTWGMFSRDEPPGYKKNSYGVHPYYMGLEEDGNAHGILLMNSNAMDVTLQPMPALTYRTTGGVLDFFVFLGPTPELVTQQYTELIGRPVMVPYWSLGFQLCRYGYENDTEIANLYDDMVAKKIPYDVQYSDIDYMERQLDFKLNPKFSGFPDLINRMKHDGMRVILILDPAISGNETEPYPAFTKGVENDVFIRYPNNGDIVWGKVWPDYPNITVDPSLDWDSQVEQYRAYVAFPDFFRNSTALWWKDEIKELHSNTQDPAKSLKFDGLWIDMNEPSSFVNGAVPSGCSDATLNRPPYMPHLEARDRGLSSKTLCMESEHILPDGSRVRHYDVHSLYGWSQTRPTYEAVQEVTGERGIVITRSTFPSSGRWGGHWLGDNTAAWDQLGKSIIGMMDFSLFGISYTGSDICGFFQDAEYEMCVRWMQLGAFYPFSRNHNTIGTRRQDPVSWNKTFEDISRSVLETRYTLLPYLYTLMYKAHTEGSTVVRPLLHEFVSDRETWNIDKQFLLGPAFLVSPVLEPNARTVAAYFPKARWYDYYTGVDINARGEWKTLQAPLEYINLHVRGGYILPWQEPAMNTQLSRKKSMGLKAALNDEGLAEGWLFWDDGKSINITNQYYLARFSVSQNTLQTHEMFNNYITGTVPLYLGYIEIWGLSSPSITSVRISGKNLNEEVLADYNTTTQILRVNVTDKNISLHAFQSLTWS
Protocol: as §2

[4] = test system: rat intestinal α-glucosidase; assay: Rat intestinal α-glucosidase inhibition assay (pNPG); format: biochemical; details: for IC50 Rat intestinal α-Glucosidase: mean ± S.D.
Protocol: The rat intestinal α-glucosidase assay was administered as per the method of Kwon et al. with slight modification. A total of 1 g of rat-intestinal acetone powder was suspended in 3 mL of 0.1 M sodium phosphate buffer (pH 6.9), and the suspension was sonicated 12 times for 30 s at 4 °C. After centrifugation (10,000× g, 30 min, 4 °C), the resulting supernatant was used for the assay. Sample solution (50 μL) and 0.1 phosphate buffer (pH 6.9, 100 μL) containing α-glucosidase (Sigma-Aldrich, St. Luis, MO, USA) solution (1.0 U/mL) was incubated at 37 °C for 10 min. After pre-incubation, 5 mM p-nitrophenyl-α-D-glucopyranoside solution (50 μL) in 0.1 M phosphate buffer (pH 6.9) was added to each well at timed intervals. The reaction mixtures were incubated at 37 °C for 30 min. Before and after incubation, absorbance was read at 405 nm and compared to a control, which had 50 μL of buffer solution in place of the extract by micro-plate reader (SUNRISE; Tecan Trading AG, Salzburg, Austria). The α-glucosidase inhibitory activity was expressed as inhibition % and was calculated as follows: Inhibition(%)=(ΔA 405 (Control)−ΔA 405(Extract)/ΔA 405 (Control))×100

Rat Intestinal SUCRASE = biological target: T1, Rat Intestinal SUCRASE (Rattus norvegicus, UniProt P23739); assay: Sucrase inhibition assay (rat intestinal acetone powder); format: biochemical; details: mean ± S.D.
T1 construct: The crude enzyme solution prepared from rat intestinal acetone powder; tissue Sigma-Aldrich Co; host or cells: rat intestine (acetone powder)
Protocol: as §2

[5] = biological target: T2, porcine pancreatic α-amylase (Sus scrofa, UniProt P00690); assay: Porcine pancreatic α-amylase inhibition assay; format: biochemical; details: for IC50: mean ± S.D.
T2 sequence (P00690 16-511): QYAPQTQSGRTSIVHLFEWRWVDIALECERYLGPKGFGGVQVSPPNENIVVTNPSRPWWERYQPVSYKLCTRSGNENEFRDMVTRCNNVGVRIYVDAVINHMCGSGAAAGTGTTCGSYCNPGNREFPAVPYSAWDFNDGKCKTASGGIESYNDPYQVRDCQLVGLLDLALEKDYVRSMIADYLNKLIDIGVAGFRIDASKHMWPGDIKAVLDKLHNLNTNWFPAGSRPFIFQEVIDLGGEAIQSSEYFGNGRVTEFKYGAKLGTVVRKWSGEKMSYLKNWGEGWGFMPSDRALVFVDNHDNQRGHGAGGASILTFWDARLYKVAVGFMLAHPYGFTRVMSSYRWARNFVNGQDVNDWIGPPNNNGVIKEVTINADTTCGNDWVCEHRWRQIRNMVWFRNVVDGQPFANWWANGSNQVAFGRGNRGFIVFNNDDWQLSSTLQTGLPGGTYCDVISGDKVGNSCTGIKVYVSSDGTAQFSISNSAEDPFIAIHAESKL
Protocol: The porcine pancreatic α-amlyase inhibition assay was administered as per the method of Kwon et al. Sample solution (200 μL) and 0.02 M sodium phosphate buffer (pH 6.9 with 0.006 M sodium chloride, 500 μL) containing α-amylase solution (0.5 mg/mL, 5.0 MU/mL) were incubated at 25 °C for 10 min. After preincubation, 500 μL of a 1% starch solution in 0.02 M sodium phosphate buffer was added. The reaction mixture was then incubated at 25 °C for 10 min. The reaction was stopped with 1.0 mL of dinitrosalicylic acid (DNS). The reaction mixture was then incubated in a boiling water bath for 5 min and cooled to room temperature. The reaction mixture at 540 nm with ELISA microplate reader (SUNRISE; Tecan Trading AG, Saltzburg, Austria).

[6] = sucrose loading, 30 min, vs pyridoxine-treated group
[7] = two highest tested doses 5 and 7 mg/mL
[8] = starch loading, 30 min, vs pyridoxine-treated group
[9] = starch loading, 30 min, vs starch (control) group

IC50 Rat Intestinal Maltase (Rat Intestinal Maltase) | IC50 Rat intestinal α-Glucosidase [4] | IC50 (Rat Intestinal SUCRASE) | IC50 [5] | Structure (SMILES) | blood glucose level (Sprague-Dawley (SD) rats [1]) | change (increase) of blood glucose level (Sprague-Dawley (SD) rats [1]) | BGL AUCt (Sprague-Dawley (SD) rats [1]; sample 0.1 g/kg oral) | pancreatic α-amylase inhibitory effect [5, 7] | blood glucose level (Sprague-Dawley (SD) rats [2]) | increase in blood glucose level (Sprague-Dawley (SD) rats [2]) | BGL AUCt (Sprague-Dawley (SD) rats [2]; sample 0.1 g/kg oral) | further results
– | – | – | – | C[C@H]1O[C@H](O[C@H]2[C@H](O)[C@@H](O)[C@@H](O[C@H]3[C@H](O)[C@@H](O)C(O)O[C@@H]3CO)O[C@@H]2CO)[C@H](O)[C@@H](O)[C@@H]1N[C@H]1C=C(CO)[C@@H](O)[C@H](O)[C@H]1O (stereo partly drawn) [Acarbose, reference compound] | – | – | – | – | – | – | – | BGL AUCt (Sprague-Dawley (SD) rats [1]; Acarbose 0.005 g/kg oral): 237.94 ± 8.82 ^a h∙mg/dL; BGL AUCt (Sprague-Dawley (SD) rats [2]; Acarbose 0.005 g/kg oral): 228.88 ± 13.09 ^a h∙mg/dL
1.08 ± 0.10 ^a mg/mL | 4.85 ± 0.06 ^a mg/mL | 2.08 mM | 88.8 mM | Cc1ncc(CO)c(CN)c1O [Pyridoxamine] | – | – | 269.14 ± 13.40 ^b h∙mg/dL | showed α-amylase inhibitory effects | – | – | 275.10 ± 7.31 ^b h∙mg/dL | –
0.87 ± 0.08 ^a mg/mL | 5.02 ± 0.05 ^a mg/mL | 1.89 mM | 137 mM | Cc1ncc(CO)c(CO)c1O [Pyridoxine] | 192.50 ± 10.10 mg/dL | 92.86 ± 10.10 mg/dL | 290.64 ± 15.55 ^c h∙mg/dL | – | 201.78 ± 18.99 mg/dL | 107.69 ± 18.99 mg/dL | 274.28 ± 15.62 ^b h∙mg/dL | pancreatic α-amylase inhibitory effect ([5]; highest tested dose 7 mg/mL): no inhibitory effects

Structure (SMILES) | IC50 Rat Intestinal Maltase (Rat Intestinal Maltase) | IC50 Rat intestinal α-Glucosidase [4] | IC50 (Rat Intestinal SUCRASE) | IC50 [5] | blood glucose level (Sprague-Dawley (SD) rats [1]) | change (increase) of blood glucose level (Sprague-Dawley (SD) rats [1]) | BGL AUCt (Sprague-Dawley (SD) rats [1]; sample 0.1 g/kg oral) | pancreatic α-amylase inhibitory effect [5, 7] | blood glucose level (Sprague-Dawley (SD) rats [2]) | increase in blood glucose level (Sprague-Dawley (SD) rats [2]) | BGL AUCt (Sprague-Dawley (SD) rats [2]; sample 0.1 g/kg oral) | further results
Cc1ncc(CO)c(C=O)c1O [Pyridoxal] | 0.38 mg/mL and 0.37 ± 0.13 ^b mg/mL | 4.14 mg/mL and 4.15 ± 0.17 ^b mg/mL | 1.91 ± 0.179 mM | 77.3 ± 7.3 mM | 164.74 ± 12.06 mg/dL | 64.88 ± 12.06 mg/dL | 272.99 ± 5.96 ^b h∙mg/dL | showed α-amylase inhibitory effects | 175.36 ± 10.84 mg/dL | 79.78 ± 10.84 mg/dL | 268.27 ± 8.80 ^b h∙mg/dL | blood glucose reduction compared to control (Sprague-Dawley (SD) rats [1]; at 30 min, loading test not given): around 18%; decrease of maximum blood glucose level (Cmax) compared to control (Sprague-Dawley (SD) rats [1]; sucrose loading test, p < 0.05): about 18%; blood glucose level, less than that of pyridoxine-treated group (Sprague-Dawley (SD) rats [1]; [6]): 27.76 mg/dL; change of blood glucose level, lower than pyridoxine-treated group (Sprague-Dawley (SD) rats [1]; [6]): 27.98 mg/dL; blood glucose level, less than that of sucrose-treated group (Sprague-Dawley (SD) rats [1]; sucrose loading, 30 min, vs sucrose (control) group): 35.89 mg/dL; maltase inhibitory activity (Rat Intestinal Maltase; 0.5 mg/mL): 48.39%; maltase inhibitory activity (Rat Intestinal Maltase; 1 mg/mL): 70.10%; maltase inhibitory activity (Rat Intestinal Maltase; 2 mg/mL): 83.29%; inhibition at 200 µg/mL [3]: 42.8%; inhibition at 500 µg/mL [3]: 66.1%; inhibition at 1000 µg/mL [3]: 78.6%; α-glucosidase inhibition ([4]; highest tested dose 7 mg/mL): 79.83%; decrease of maximum blood glucose level (Cmax) compared to control (Sprague-Dawley (SD) rats [2]; starch loading test, p < 0.05): ~19%; increase in blood glucose level, less than that of pyridoxine-treated group (Sprague-Dawley (SD) rats [2]; [8]): 27.91 mg/dL; suppression of blood glucose level compared to pyridoxine-treated group (Sprague-Dawley (SD) rats [2]; [8]): 26.41 mg/dL; increase in blood glucose level, less than that of starch group (Sprague-Dawley (SD) rats [2]; [9]): 44.45 mg/dL; suppression of blood glucose level compared to starch group (Sprague-Dawley (SD) rats [2]; [9]): 41.56 mg/dL
